Assay results taken from US20210147343A1 (priority 2018, published 2021).
Read-outs that look alike come from different tables or passages of the source.

Columns and labels:
[1] = target: T1, kappa opioid receptor (KOR) (Homo sapiens, UniProt P41145); test: cell-based; conditions: after activation with dynorphin B
T1 construct: host or cells: CHO-K1
Excerpt: KOR cAMP Antagonist Assay

mu opioid receptor (MOR) [2] = target: T2, mu opioid receptor (MOR) (Homo sapiens, UniProt P35372); test: MOR cAMP agonist assay
T2 sequence (P35372 whole entry): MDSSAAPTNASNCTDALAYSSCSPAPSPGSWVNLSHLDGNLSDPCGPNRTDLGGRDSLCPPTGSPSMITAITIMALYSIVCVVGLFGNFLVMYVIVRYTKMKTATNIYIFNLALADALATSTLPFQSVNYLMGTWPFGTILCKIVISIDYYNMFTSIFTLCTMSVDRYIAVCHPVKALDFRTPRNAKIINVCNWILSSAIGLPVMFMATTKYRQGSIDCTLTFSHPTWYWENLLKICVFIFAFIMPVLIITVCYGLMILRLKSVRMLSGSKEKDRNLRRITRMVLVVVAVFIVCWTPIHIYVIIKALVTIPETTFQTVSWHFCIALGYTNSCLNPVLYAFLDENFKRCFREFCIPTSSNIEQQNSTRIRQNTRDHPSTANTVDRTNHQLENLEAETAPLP

mu opioid receptor (MOR) [3] = target: T2, mu opioid receptor (MOR); test: MOR GTPγS agonist assay; type: biochemical; design: host or cells: CHO-K1; conditions: membranes of CHO cells over-expressing MOR; SPA beads; read-out: MOR GTPγS EC50
Excerpt: Membranes obtained from the stable cell lines over-expressing MOR were subjected to GTPγS assay using SPA beads (Perkin Elmer, Cat #RPNQ0001).

[4] = kOR cAMP IC50, CHO-K1 cells expressing kOR
[5] = CHO-K1 cells expressing kOR, read-out: kOR cAMP IC50
[6] = read-out: mOR cAMP EC50, CHO-K1 cells stably expressing mOR, cAMP levels

T1 sequence (P41145 whole entry): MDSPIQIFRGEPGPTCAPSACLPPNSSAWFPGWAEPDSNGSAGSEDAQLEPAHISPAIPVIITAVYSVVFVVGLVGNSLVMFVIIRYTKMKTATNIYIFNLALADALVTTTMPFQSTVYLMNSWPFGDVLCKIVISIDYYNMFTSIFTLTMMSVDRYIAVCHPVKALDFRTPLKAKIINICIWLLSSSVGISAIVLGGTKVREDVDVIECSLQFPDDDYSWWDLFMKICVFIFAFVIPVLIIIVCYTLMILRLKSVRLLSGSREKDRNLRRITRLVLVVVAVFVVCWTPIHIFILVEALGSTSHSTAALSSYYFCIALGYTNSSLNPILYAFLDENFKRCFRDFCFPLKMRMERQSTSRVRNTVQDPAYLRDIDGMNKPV

| Structure (SMILES) | IC50 [1, 4] [µM] | EC50 (mu opioid receptor (MOR) [2]) [µM] | also measured |
| --- | --- | --- | --- |
| C[C@H](CC(=O)NC[C@H](Cc1ccc(C(N)=O)cc1)N(C)C)c1ccccc1 [Compound A-10, 4-((S)-2-(dimethylamino)-3-((R)-3-phenylbutanamido)propyl)benzamide] | 0.1 to 1 |  |  |
| Cc1cc(O)cc(C)c1C[C@@H](CNC(=O)[C@@H]1C[C@@]1(C)c1ccccc1)N(C)C [Compound B-13, (1R,2R)—N—((S)-2-(dimethylamino)-3-(4-hydroxy-2,6-dimethylphenyl)propyl)-2-methyl-2-phenylcyclopropane-1-carboxamide] | < 0.1 | < 0.1 |  |
| C[C@]1(c2ccccc2)C[C@H]1C(=O)NC[C@H](Cc1ccc2[nH]ncc2c1)N1CCOCC1 [Compound B-43, (1R,2S)—N—((S)-3-(2H-indazol-5-yl)-2-morpholinopropyl)-2-methyl-2-phenylcyclopropane-1-carboxamide] |  | > 1 | IC50 [1, 5]: > 1 µM |
| C[C@@]1(c2ccccc2)C[C@H]1C(=O)NC[C@@H]1Cc2ccc(O)cc2N1 [Compound B-16, (1R,2R)—N—(((S)-6-hydroxyindolin-2-yl)methyl)-2-methyl-2-phenylcyclopropane-1-carboxamide] |  | > 1 | IC50 [1, 5]: > 1 µM |
| Cc1cc(C(N)=O)cc(C)c1C[C@@H](CNC(=O)N[C@H](c1ccccc1)C1CC1)N(C)C [Compound A-9, 4-((S)-3-(3-((S)-cyclopropyl(phenyl)methyl)ureido)-2-(dimethylamino)propyl)-3,5-dimethylbenzamide] |  | > 1 | IC50 [1, 5]: > 1 µM |
| CN(C)[C@H](CNC(=O)[C@@H]1C[C@]1(C)c1ccccc1)Cc1ccc2[nH]c(=O)oc2c1 [Compound B-49, (1R,2S)—N—((S)-2-(dimethylamino)-3-(2-oxo-2,3-dihydrobenzo[d]oxazol-6-yl)propyl)-2-methyl-2-phenylcyclopropane-1-carboxamide] | > 1 | < 0.1 |  |
| Cc1cc(C(N)=O)cc(C)c1C[C@@H](CNC(=O)C[C@H](C)c1ccccc1)N(C)C [Compound A-8, 4-((S)-2-(dimethylamino)-3-((S)-3-phenylbutanamido)propyl)-3,5-dimethylbenzamide] |  | > 1 | IC50 [1, 5]: > 1 µM |
| CN(C)[C@H](CNC(=O)[C@@H]1C[C@@]1(C)c1ccccc1)Cc1ccc(O)cc1F [Compound B-44, (1R,2R)—N—((S)-2-(dimethylamino)-3-(2-fluoro-4-hydroxyphenyl)propyl)-2-methyl-2-phenylcyclopropane-1-carboxamide] | > 1 |  |  |
| C[C@H](OC(=O)NC[C@H](Cc1ccc(C(N)=O)cc1)N(C)C)c1ccccc1 [Compound A-3, (S)-1-phenylethyl ((S)-3-(4-carbamoylphenyl)-2-(dimethylamino)propyl) carbamate] | > 1 | < 0.1 |  |
| CN(C)[C@H](CNC(=O)C1CC1(C)c1ccccc1)Cc1ccc(C(N)=O)cc1 (stereo partly drawn) [Compound B-61, 4-((2S)-2-(dimethylamino)-3-(2-methyl-2-phenylcyclopropane-1-carboxamido)propyl)benzamide] | > 1 | < 0.1 |  |
| CNC(=O)c1ccc(C[C@@H](CNC(=O)[C@@H]2C[C@]2(C)c2ccccc2)N(C)C)cc1F [Compound B-46, 4-((S)-2-(dimethylamino)-3-((1R,2S)-2-methyl-2-phenylcyclopropane-1-carboxamido)propyl)-2-fluoro-N-methylbenzamide] | > 1 | < 0.1 |  |
| CN(C)[C@H](CNC(=O)[C@@H]1C[C@@]1(C)c1ccccc1)Cc1c(F)cc(O)cc1F [Compound B-14, (1R,2R)—N—((S)-3-(2,6-difluoro-4-hydroxyphenyl)-2-(dimethylamino)propyl)-2-methyl-2-phenylcyclopropane-1-carboxamide] | > 1 | < 0.1 |  |
| CN(C)[C@H](CNC(=O)[C@H]1C[C@@H]1c1ccccc1)Cc1ccc(O)cc1 [Compound B-18, (1S,2S)—N—((S)-2-(dimethylamino)-3-(4-hydroxyphenyl)propyl)-2-phenylcyclopropane-1-carboxamide] | 0.1 to 1 |  |  |
| CN(C)[C@H](CNC(=O)[C@H]1C[C@@]1(C)c1ccccc1)Cc1ccc(O)cc1 [Compound B-58, (1S,2R)—N—((S)-2-(dimethylamino)-3-(4-hydroxyphenyl)propyl)-2-methyl-2-phenylcyclopropane-1-carboxamide] |  |  | IC50 ([1]; read-out: kOR cAMP IC50, CHO-K1 cells expressing kOR): > 1 µM; EC50 (mu opioid receptor (MOR) [2]; [6]): 0.1 to 1 µM |
| CN(C)[C@H](CNC(=O)[C@@H]1C[C@]1(C)c1ccccc1)Cc1cc(F)c(O)c(Cl)c1 [Compound B-24, (1R,2S)—N—((S)-3-(3-chloro-5-fluoro-4-hydroxyphenyl)-2-(dimethylamino)propyl)-2-methyl-2-phenylcyclopropane-1-carboxamide] | 0.1 to 1 |  |  |
| CNC(=O)c1ccc(C[C@@H](CNC(=O)[C@@H]2C[C@@]2(C)c2ccccc2)N(C)C)cc1F [Compound B-2, 4-((S)-2-(dimethylamino)-3-((1R,2R)-2-methyl-2-phenylcyclopropane-1-carboxamido)propyl)-2-fluoro-N-methylbenzamide] | > 1 | < 0.1 |  |

| Structure (SMILES) | IC50 [1, 4] [µM] | EC50 (mu opioid receptor (MOR) [2]) [µM] | also measured |
| --- | --- | --- | --- |
| CN(C)[C@H](CNC(=O)[C@@H]1C[C@]1(C)c1ccccc1)Cc1cc2cn[nH]c2cc1Cl [Compound B-54, (1R,2S)—N—((S)-3-(6-chloro-2H-indazol-5-yl)-2-(dimethylamino)propyl)-2-methyl-2-phenylcyclopropane-1-carboxamide] | 0.1 to 1 | < 0.1 |  |
| CN(C)[C@H](CNC(=O)[C@H]1C[C@@]1(C)c1ccccc1)Cc1ccc(O)cc1 [Compound B-11, (1S,2R)—N—((S)-2-(dimethylamino)-3-(4-hydroxyphenyl)propyl)-2-methyl-2-phenylcyclopropane-1-carboxamide] | > 1 | 0.1 to 1 |  |
| CN(C)[C@H](CNC(=O)[C@@H]1C[C@]1(C)c1ccccc1)Cc1ccc(C(=O)NC2CC2)c(F)c1 [Compound B-39, N-cyclopropyl-4-((S)-2-(dimethylamino)-3-((1R,2S)-2-methyl-2-phenylcyclopropane-1-carboxamido)propyl)-2-fluorobenzamide] | > 1 | < 0.1 |  |
| CN(C)[C@H](CNC(=O)[C@@H]1C[C@@]1(C)c1ccccc1)Cc1ccc2[nH]ncc2c1 [Compound B-20, (1R,2R)—N—((S)-2-(dimethylamino)-3-(1H-indazol-5-yl)propyl)-2-methyl-2-phenylcyclopropane-1-carboxamide] | > 1 | < 0.1 |  |
| CN(C)[C@H](CNC(=O)N[C@H](c1ccccc1)C1CC1)Cc1ccc(C(N)=O)cc1 [Compound A-4, 4-((S)-3-(3-((S)-cyclopropyl(phenyl)methyl)ureido)-2-(dimethylamino)propyl)benzamide] | < 0.1 | < 0.1 |  |
| CN(C)[C@H](CNC(=O)[C@@H]1C[C@@]1(C)c1ccccc1)Cc1ccc(C(N)=O)cc1Cl [Compound B-60, 3-chloro-4-((S)-2-(dimethylamino)-3-((1R,2R)-2-methyl-2-phenylcyclopropane-1-carboxamido)propyl)benzamide] | < 0.1 |  | EC50 (mu opioid receptor (MOR) [2]; [6]): < 0.1 µM |
| C[C@H](NC(=O)NC[C@H](Cc1ccc(C(N)=O)cc1)N(C)C)c1ccccc1 [Compound A-1, 4-((S)-2-(dimethylamino)-3-(3-((S)-1-phenylethyl)ureido)propyl) benzamide] | 0.1 to 1 | > 1 |  |
| Cc1ccc(C(=O)NC[C@H](Cc2ccc(C(N)=O)cc2)N(C)C)c(C)c1 [Compound C-67, (S)—N-(3-(4-carbamoylphenyl)-2-(dimethylamino)propyl)-2,4-dimethylbenzamide] | > 1 |  | EC50 (mu opioid receptor (MOR) [3]): < 0.1 µM |
| CN(C)[C@H](CNC(=O)[C@@H]1C[C@@]1(C)c1ccccc1)Cc1ccc(O)c(Cl)c1 [Compound B-59, (1R,2R)—N—((S)-3-(3-chloro-4-hydroxyphenyl)-2-(dimethylamino)propyl)-2-methyl-2-phenylcyclopropane-1-carboxamide] |  | < 0.1 |  |
| CN(C)[C@H](CNC(=O)[C@@H]1C[C@@H]1c1ccccc1)Cc1ccc(O)cc1 [Compound B-25, (1R,2S)—N—((S)-2-(dimethylamino)-3-(4-hydroxyphenyl)propyl)-2-phenylcyclopropane-1-carboxamide] |  | 0.1 to 1 |  |
| CN(CC1CC1)[C@H](CNC(=O)[C@@H]1C[C@]1(C)c1ccccc1)Cc1ccc2[nH]c(=O)oc2c1 [Compound B-32, (1R,2S)—N—((S)-2-((cyclopropylmethyl)(methyl)amino)-3-(2-oxo-2,3-dihydrobenzo[d]oxazol-6-yl)propyl)-2-methyl-2-phenylcyclopropane-1-carboxamide] |  | 0.1 to 1 |  |
| CNC(=O)c1cc(C)c(C[C@@H](CNC(=O)c2ccccc2)N(C)C)c(C)c1 [Compound C-45] | > 1 |  | EC50 (mu opioid receptor (MOR) [3]): < 0.1 µM |
| CNC(=O)c1c(F)cc(C[C@@H](CNC(=O)[C@@H]2C[C@]2(C)c2ccccc2)N(C)C)cc1F [Compound B-27, 4-((S)-2-(dimethylamino)-3-((1R,2S)-2-methyl-2-phenylcyclopropane-1-carboxamido)propyl)-2,6-difluoro-N-methylbenzamide] |  | < 0.1 |  |
| CNC(=O)c1cc(C)c(C[C@@H](CNC(=O)[C@@H]2C[C@@]2(C)c2ccccc2)N(C)C)cc1F [Compound B-26, 4-((S)-2-(dimethylamino)-3-((1R,2R)-2-methyl-2-phenylcyclopropane-1-carboxamido)propyl)-2-fluoro-N,5-dimethylbenzamide] |  | < 0.1 |  |
| CNC(=O)c1cc(F)c(C[C@@H](CNC(=O)[C@@H]2C[C@]2(C)c2ccccc2)N(C)C)cc1F [Compound B-28, 4-((S)-2-(dimethylamino)-3-((1R,2S)-2-methyl-2-phenylcyclopropane-1-carboxamido)propyl)-2,5-difluoro-N-methylbenzamide] |  | < 0.1 |  |
